On the set-up of series [1]: AUC0-inf / AUC0-last: unit not given here. The settings on record: mice, p.o., data provided by MMV, cited from earlier work; for AUC0-last / MRT0-last / Tlast / Tmax / Cmax: 114 µmol/kg (1),(5), 119 µmol/kg (2); for Cmax: plasma.
For series [2], the system named is human foreskin fibroblasts (HFFs). Description: HFF viability, Alamar Blue assay. The class given is cell-based. Particulars: 1 µM compound/well, uninfected confluent HFF, 3 days. The method, then:
For an initial screen, 390 compounds (1 µM compound/well) were added to human foreskin fibroblasts (HFFs) previously seeded in 96-well-plates. DMSO (0.25%) was included as a solvent control. HFF monolayers were either left uninfected or were infected with 10^3 N. caninum beta-galactosidase expressing tachyzoites per well. After 3 days, N. caninum proliferation was assayed by measuring beta-galactosidase activity, and HFF viability was monitored using the Alamar Blue assay. This screen was repeated once for confirmation, yielding identical results. […]
To define the cutoff values in the initial screening, compounds were regarded as effective against N. caninum when the beta-galactosidase values were lower than the mean values of the controls (8 replicates) minus three times the standard deviation of these control values. […] The IC50 values were calculated after the logit-log transformation of the relative growth (RG; control = 1) according to the formula ln (RG/(1 − RG)) = a × ln(drug concentration) + b, and the subsequent regression analysis was carried out using the corresponding software tool contained in the Excel software package (Microsoft, Seattle, WA, USA).

The conditions of series [3]: source of values not stated; cited from earlier work.
Series [4] deals with Cryptosporidium parvum. Further details: method as in PMID 24566188. The settings on record: cited from earlier work.
Series [5] concerns N. caninum tachyzoites. Description: N. caninum β-galactosidase reporter strain proliferation in HFF (screen and inhibition curves). The class given is cell-based. Particulars: Neospora caninum. The method, then: Figure 2 Dose response curves of 9 Medicines for Malaria Venture (MMV) Malaria Box compounds. […] The inhibition of N. caninum tachyzoite proliferation was determined using a β-galactosidase reporter strain in the presence of a concentration series of compounds added prior to the infection of confluent human foreskin fibroblasts by tachyzoites. The mean values ± SE are indicated for quadruplicates.
For an initial screen, 390 compounds (1 µM compound/well) were added to human foreskin fibroblasts (HFFs) previously seeded in 96-well-plates. DMSO (0.25%) was included as a solvent control. HFF monolayers were either left uninfected or were infected with 10^3 N. caninum beta-galactosidase expressing tachyzoites per well. After 3 days, N. caninum proliferation was assayed by measuring beta-galactosidase activity, and HFF viability was monitored using the Alamar Blue assay. This screen was repeated once for confirmation, yielding identical results. Forty compounds showing values lower than the cut-off of the beta-galactosidase assay were regarded as effective against N. caninum, compounds yielding values lower than the cutoff of the Alamar Blue assay were regarded as cytotoxic. Effective compounds without cytotoxicity were regarded as potential hits and were retained for further experiments. The IC50 values (inhibitory concentration of 50% of the solvent control value) of selected compounds were determined in quadruplicate wells in the same assay set-up and were calculated as described.
To define the cutoff values in the initial screening, compounds were regarded as effective against N. caninum when the beta-galactosidase values were lower than the mean values of the controls (8 replicates) minus three times the standard deviation of these control values. Furthermore, compounds were regarded as cytotoxic when the Alamar Blue values were lower than the mean values of the untreated controls (8 replicates) minus three times the standard deviation of these control values. The IC50 values were calculated after the logit-log transformation of the relative growth (RG; control = 1) according to the formula ln (RG/(1 − RG)) = a × ln(drug concentration) + b, and the subsequent regression analysis was carried out using the corresponding software tool contained in the Excel software package (Microsoft, Seattle, WA, USA).

For series [6], the system named is Plasmodium falciparum blood forms. On the set-up: method as in PMID 31665424. The settings on record: cited from earlier work.
Series [7] has as its system Theileria annulata. Particulars: cited from earlier work; for Therapeutic index: T. annulata vs macrophages.
For series [8], the system named is N. caninum tachyzoites. The class given is cell-based, Neospora caninum. Particulars: 500 nM, TEM at 6, 12, 24, 48 h of treatment. The procedure: The transmission electron microscopy of N. caninum-infected HFF monolayers was done as previously described. Briefly, HFFs were grown to confluency in 6-well tissue culture devices and were infected with freshly isolated N. caninum tachyzoites during 2 h at 37 °C/5% CO2. After one wash in PBS, treatments with the compounds (1), (2), and (5) were initiated, all at 500 nM. The controls were treated with the corresponding amount of DMSO. After 6, 12, 24, or 48 h, samples were rinsed in PBS, and were fixed in 100 mM of cacodylate buffer pH7.3 containing 2.5% glutaraldehyde for 2 h at room temperature. The cells were scraped and centrifuged at 1000 g for 10 min at 4 °C and, and the resulting pellet was further fixed in the same solution at 4 °C overnight, followed by post-fixation in 2% OsO4 in cacodylate buffer for 4 h at 4 °C. Subsequently, the specimens were washed and pre-stained in Uranyless^TM (Electron Microscopy Sciences, Hatfield, PA, USA), followed by dehydration in a graded series of ethanol (30%, 50%, 70%, 90%, and 100%). They were finally embedded in Epon 820 epoxy resin over a period of 2 days with 3 resin changes. The resin was polymerized at 65 °C for 24 h, and 80-nm sections were cut on a Reichert and Jung ultramicrotome. The sections were loaded onto 300-mesh copper grids (Plano GmbH, Marburg, Germany) and were stained with Uranyless^TM and lead citrate as described.

Series [9] has as its system cysteine proteinases. On the set-up: method as in PMID 27467575. Particulars: functional assays; cited from earlier work.
In series [10] the test system is Brugia malayi. Further details: method as in PMID 27467575. The settings on record: cited from earlier work.
Setting [11] is: 72 h, 3 days, concentration range 0–250 nM, with 95% confidence intervals.

Where two headings read alike, the source gives them in different places.

`CN(C)c1ccc(C(O)(c2ccc(N(C)C)cc2)c2ccc(N(C)C)cc2)cc1` [Compound (1)]: in series [1], the AUC0-last was 27.2, the MRT0-last is listed as 4.80 h, the Tlast is listed as 9.00 h and the time to peak (Tmax) is 5.00 h. In addition, the Cmax in series [1] is 1090 nM. In addition, the “Cytotoxicity against HFFs” value in series [2] was “did not affect confluent HFFs”. Besides, the lipophilicity (LogP) in series [3] is given as 4.76. Also, in [4] (read-out: IC50 against Cryptosporidium parvum), the IC50 was roughly 800 nM. The same molecule gave an IC50 in series [5] (setting [11]) of 25 ± 5 nM. The “Rapidity of action against P. falciparum blood forms” value in series [6] is “more slowly than artesunate, but faster than atovaquone”. In [7], the Therapeutic index is on record as 2.5 and the “Effectiveness against T. annulata” value was “most effective against T. annulata”. Further, in series [8], the “Effects on the ultrastructure of N. caninum tachyzoites” value (from here on “Effects on the ultrastructure”) was “cytoplasmic vacuoles that were already detectable after 6 h of treatment”. In addition, the “Effects on the ultrastructure” value in series [8] (listed as MMV665941) is reported as “specifically induced distinct alterations in the tachyzoites”.

Consider `CCCOCc1cc(CN2CCN(c3cccc(Cl)c3)CC2)c(O)c2ncccc12` [Compound (3)], for which the “Inhibition of cysteine proteinases” value in series [9] was “inhibits cysteine proteinases”. Moreover, the LogP in series [3] is recorded as 4.71. Moreover, inhibition in [5] (setting [11]) was half-maximal at 99 ± 10 nM (IC50). Further, the “Rapidity of action against P. falciparum blood forms” value in series [6] is recorded as “very slowly”.

Regarding `O=C1c2ccc3c4c(ccc(c24)C(=O)N1CCCCO)C(=O)N(CCCCO)C3=O` [Compound (5)], in series [1], the AUC0-last is recorded as 0.475, the MRT0-last is recorded as 1.55 h, the Tlast is 7.00 h and the Tmax is listed as 0.444 h. In addition, the Cmax in series [1] was 308 nM. In series [1] (114 µmol/kg), the AUC0-inf was 0.486, the MRT0-inf is on record as 1.80 h and the T1/2 was 1.48 h. For the same molecule, the LogP in series [3] is given as −1.30. Moreover, the “Effectiveness against C. parvum” value in [4] is “effective against C. parvum with an IC50 in same range”. Moreover, in series [5], the IC50 is less than 200 nM. Besides, in series [5] (setting [11]), half-maximal inhibition (IC50) required 150 ± 30 nM. Also, the “Effects on the ultrastructure” value in [8] was “ongoing proliferation despite clear ultrastructural alterations”. In addition, in series [8] (listed as MMV009085), the “Effects on the ultrastructure” value is “specifically induced distinct alterations in the tachyzoites”.

For `COc1ccc(C(=O)NC(c2ccc(Cl)cc2Cl)c2cc(Cl)c3cccnc3c2O)cc1` (stereo not drawn) [Compound (4)], the “Effectiveness against the helminth Brugia malayi” value in series [10] is on record as “effective”. For the same molecule, the LogP in [3] was 6.15. The “Effectiveness against C. parvum” value in series [4] is given as “effective against C. parvum”. In [5] (setting [11]), this molecule had an IC50 of 79 ± 10 nM. Besides, the “Rapidity of action against P. falciparum blood forms” value in [6] is “relatively slowly”. Moreover, in series [7], the Therapeutic index entry is “around 18” and the “Effectiveness against T. annulata” value was “most effective against T. annulata”.

Turning to `O=C(Nc1cccc(C(F)(F)F)c1)c1cc(Cl)ccc1O` [Compound (2)], in series [1], the MRT0-last is given as 5.24 h, the Tlast is listed as 9.00 h, the Tmax is recorded as 6.33 h and the maximum concentration (Cmax) was 62 nM. Besides, in series [3], the LogP is 6.06. This molecule also came in with an IC50 in series [5] (setting [11]) of 71 ± 30 nM. Further, the “Rapidity of action against P. falciparum blood forms” value in series [6] is listed as “very rapidly”. Further, in series [8], the “Effects on the ultrastructure” value was “after a treatment duration of 12 h (Figure 6C), the loss of the tachyzoite mitochondrial matrix was evident”. For the same molecule, the “Effects on the ultrastructure” value in [8] (listed as MMV665807) is given as “specifically induced distinct alterations in the tachyzoites”.

Broadly, the Tmax is the time at which the peak concentration occurs. The term Cmax denotes the maximum level reached in the sampled fluid or tissue. Usually LogP stands for a log measure of how a compound divides between an organic and an aqueous phase. What is called IC50 is the midpoint of a concentration-inhibition curve.

The record behind these values is article PMC7145303, “In Vitro Activities of MMV Malaria Box Compounds against the Apicomplexan Parasite Neospora caninum, the Causative Agent of Neosporosis in Animals” (Molecules, 2020).
